US20240368150A1 (Hoffmann-La Roche Inc., priority 2021, published 2024)
Like-named read-outs stand apart in the source and are kept apart here.

Assays:
[1] = test system: primary human T-cells; experiment: Proliferation assay after 5 days (CellTiter-Glo, CD3 stimulation; PBS counter screen); type: cell-based; settings: CD3 stimulation; for Emax / Emax proliferation (% activation): 5 days, normalized to reference compound A1 as stimulator control = 100%, DMSO neutral control; for Emax: read-out: Emax proliferation (% activation); for EC50: primary human T-cells, CellTiter-Glo after 5 days, EC50 of fitted sigmoidal curve, read-out: Tcell Proliferation CD3 EC50
Procedure, shortened: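 Cpds added to medium-only plates; 5 d culture. Readout CellTiter-Glo 2.0 (equal vol), RT 45 min equilibration, 15 min rocking RT, luminescence. ATP signal taken as cell number.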

[2] = test system: primary human T-cells

Structure (SMILES): CN[C@@H](CO)C(=O)N[C@H]1CS(=O)(=O)c2cc(F)c(-c3nnc(C(C)(C)C)o3)cc2N(Cc2ccc(Cl)cc2)C1=O [Example 269, (2S)-3-hydroxy-2-(methylamino)-N-[(3R)-7-(5-tert-butyl-1,3,4-oxadiazol-2-yl)-5-[(4-chlorophenyl)methyl]-8-fluoro-1,1,4-trioxo-2,3-dihydro-1λ^6,5-benzothiazepin-3-yl]propanamide]
- Emax ([1]; Homo sapiens, T-cell, 120 h): 67%
- EC50 ([1]; Homo sapiens, T-cell, 120 h): 5840 nM
- EC50 [2]: > 10000 nM

Structure (SMILES): Cc1ccccc1-c1nnc(-c2cc3c(cc2F)S(=O)(=O)C[C@H](N)C(=O)N3Cc2ccc(Cl)cc2)o1 [Example 98, (3R)-3-amino-5-[(4-chlorophenyl)methyl]-8-fluoro-7-[5-(o-tolyl)-1,3,4-oxadiazol-2-yl]-1,1-dioxo-2,3-dihydro-1λ^6,5-benzothiazepin-4-one]
- Emax ([1]; Homo sapiens, T-cell, 120 h): 112%
- EC50 ([1]; Homo sapiens, T-cell, 120 h): 64.6 nM
- EC50 [2]: 71.2 nM

Structure (SMILES): CC(C)(C#N)c1nnc(-c2cc3c(cc2F)S(=O)(=O)C[C@H](N)C(=O)N3Cc2ccc(Cl)cc2)o1 [Example 104, 2-methyl-2-[5-[(3R)-3-amino-5-[(4-chlorophenyl)methyl]-8-fluoro-1,1,4-trioxo-2,3-dihydro-1λ^6,5-benzothiazepin-7-yl]-1,3,4-oxadiazol-2-yl]propanenitrile]
- Emax ([1]; Homo sapiens, T-cell, 120 h): 112%
- EC50 ([1]; Homo sapiens, T-cell, 120 h): 150 nM
- EC50 [2]: 277 nM

Structure (SMILES): N[C@H]1CS(=O)(=O)c2cc(F)c(-c3noc(N4CCOC(C(F)(F)F)C4)n3)cc2N(Cc2ccc(Cl)cc2)C1=O (stereo partly drawn) [Example 193, (3R)-3-amino-5-[(4-chlorophenyl)methyl]-8-fluoro-1,1-dioxo-7-[5-[2-(trifluoromethyl)morpholin-4-yl]-1,2,4-oxadiazol-3-yl]-2,3-dihydro-1λ^6,5-benzothiazepin-4-one]
- Emax ([1]; Homo sapiens, T-cell, 120 h): 108%
- EC50 ([1]; Homo sapiens, T-cell, 120 h): 21.3 nM
- EC50 [2]: 38.7 nM

Structure (SMILES): COC1(c2nnc(-c3ccc4c(c3)N(Cc3ccc(Cl)cc3)C(=O)[C@@H](N)CS4(=O)=O)o2)CCC(F)(F)CC1 [Example 378, (3R)-3-amino-5-[(4-chlorophenyl)methyl]-7-[5-(4,4-difluoro-1-methoxy-cyclohexyl)-1,3,4-oxadiazol-2-yl]-1,1-dioxo-2,3-dihydro-1λ^6,5-benzothiazepin-4-one]
- Emax ([1]; Homo sapiens, T-cell, 120 h): 74%
- EC50 ([1]; Homo sapiens, T-cell, 120 h): 447 nM
- EC50 [2]: > 10000 nM

Structure (SMILES): CN1CCCC(c2nnc(-c3cc4c(cc3F)S(=O)(=O)C[C@H](N)C(=O)N4Cc3ccc(Cl)cc3)o2)C1 (stereo partly drawn) [Example 154, (3R)-3-amino-5-[(4-chlorophenyl)methyl]-8-fluoro-7-[5-(1-methyl-3-piperidyl)-1,3,4-oxadiazol-2-yl]-1,1-dioxo-2,3-dihydro-1λ^6,5-benzothiazepin-4-one]
- Emax ([1]; Homo sapiens, T-cell, 120 h): 86%
- EC50 ([1]; Homo sapiens, T-cell, 120 h): 1720 nM
- EC50 [2]: 890 nM

Structure (SMILES): CC(C)(C)n1nnc(-c2cc3c(cc2F)[S+]([O-])C[C@H](N)C(=O)N3Cc2ccc(Cl)cc2)n1 (stereo partly drawn) [Example 34, (3R)-3-amino-7-(2-tert-butyltetrazol-5-yl)-5-[(4-chlorophenyl)methyl]-8-fluoro-1-oxo-2,3-dihydro-1λ^4,5-benzothiazepin-4-one]
- Emax proliferation (% activation) [1]: 100 % activation
- EC50 [1]: 2800 nM
- EC50 [2]: 5870 nM

Structure (SMILES): CC1(C)CN(c2nnc(-c3cc4c(cc3F)S(=O)(=O)C[C@H](N)C(=O)N4Cc3ccc(Cl)cc3)o2)CCO1 [Example 473, (3R)-3-amino-5-[(4-chlorophenyl)methyl]-7-[5-(2,2-dimethylmorpholin-4-yl)-1,3,4-oxadiazol-2-yl]-8-fluoro-1,1-dioxo-2,3-dihydro-1λ^6,5-benzothiazepin-4-one]
- Emax ([1]; Homo sapiens, T-cell, 120 h): 126%
- EC50 ([1]; Homo sapiens, T-cell, 120 h): 403 nM
- EC50 [2]: 2610 nM

Structure (SMILES): NC1CN(c2nnc(-c3cc4c(cc3F)S(=O)(=O)C[C@H](N)C(=O)N4Cc3ccc(Cl)cc3)o2)CCC1(F)F (stereo partly drawn) [Example 467, (3R)-3-amino-7-[5-(3-amino-4,4-difluoro-1-piperidyl)-1,3,4-oxadiazol-2-yl]-5-[(4-chlorophenyl)methyl]-8-fluoro-1,1-dioxo-2,3-dihydro-1λ^6,5-benzothiazepin-4-one]
- Emax ([1]; Homo sapiens, T-cell, 120 h): 102%
- EC50 ([1]; Homo sapiens, T-cell, 120 h): 880 nM
- EC50 [2]: 474 nM

Structure (SMILES): CCN1CC(c2nnc(-c3cc4c(cc3F)S(=O)(=O)C[C@H](N)C(=O)N4Cc3ccc(Cl)cc3)o2)CC(F)(F)C1 (stereo partly drawn) [Example 150, (3R)-3-amino-5-[(4-chlorophenyl)methyl]-7-[5-(1-ethyl-5,5-difluoro-3-piperidyl)-1,3,4-oxadiazol-2-yl]-8-fluoro-1,1-dioxo-2,3-dihydro-1λ^6,5-benzothiazepin-4-one]
- Emax ([1]; Homo sapiens, T-cell, 120 h): 128%
- EC50 ([1]; Homo sapiens, T-cell, 120 h): 75.7 nM
- EC50 [2]: 358 nM

Structure (SMILES): N[C@H]1CS(=O)(=O)c2cc(F)c(-c3noc(N4CCOCC4)n3)cc2N(Cc2ccc(Cl)cc2)C1=O [Example 196, (3R)-3-amino-5-[(4-chlorophenyl)methyl]-8-fluoro-7-(5-morpholino-1,2,4-oxadiazol-3-yl)-1,1-dioxo-2,3-dihydro-1λ^6,5-benzothiazepin-4-one]
- Emax ([1]; Homo sapiens, T-cell, 120 h): 81%
- EC50 ([1]; Homo sapiens, T-cell, 120 h): 16.6 nM
- EC50 [2]: 36.1 nM

Structure (SMILES): CC(C)(C)c1nc(-c2cc3c(cc2F)[S+]([O-])C[C@H](N)C(=O)N3Cc2ccc(Cl)cc2)no1 (single isomer, unassigned; epimer b) [Example 341]
- Emax proliferation (% activation) [1]: 105 % activation
- EC50 [1]: 3010 nM
- EC50 [2]: > 10000 nM

Structure (SMILES): Cc1cc2c(cc1-c1nnc(C3CN(C)CC(F)(F)C3)o1)N(Cc1ccc(Cl)cc1)C(=O)[C@@H](N)CS2(=O)=O (stereo partly drawn) [Example 524, (3R)-3-amino-5-[(4-chlorophenyl)methyl]-7-[5-(5,5-difluoro-1-methyl-3-piperidyl)-1,3,4-oxadiazol-2-yl]-8-methyl-1,1-dioxo-2,3-dihydro-1λ^6,5-benzothiazepin-4-one]
- Emax ([1]; Homo sapiens, T-cell, 120 h): 80%
- EC50 ([1]; Homo sapiens, T-cell, 120 h): 4270 nM
- EC50 [2]: > 10000 nM

Structure (SMILES): N[C@H]1CS(=O)(=O)c2cc(F)c(-c3noc(N4CCOC5(CC5)C4)n3)cc2N(Cc2ccc(Cl)cc2)C1=O [Example 194, (3R)-3-amino-5-[(4-chlorophenyl)methyl]-8-fluoro-7-[5-(4-oxa-7-azaspiro[2.5]octan-7-yl)-1,2,4-oxadiazol-3-yl]-1,1-dioxo-2,3-dihydro-1λ^6,5-benzothiazepin-4-one]
- Emax ([1]; Homo sapiens, T-cell, 120 h): 79%
- EC50 ([1]; Homo sapiens, T-cell, 120 h): 15.2 nM
- EC50 [2]: 40.7 nM

Structure (SMILES): COC(C)(c1nnc(-c2ccc3c(c2)N(Cc2ccc(Cl)cc2)C(=O)[C@@H](N)CS3(=O)=O)o1)C(F)(F)F (stereo partly drawn) [Example 372, (3R)-3-amino-5-[(4-chlorophenyl)methyl]-1,1-dioxo-7-[5-(2,2,2-trifluoro-1-methoxy-1-methyl-ethyl)-1,3,4-oxadiazol-2-yl]-2,3-dihydro-1λ^6,5-benzothiazepin-4-one]
- Emax ([1]; Homo sapiens, T-cell, 120 h): 118%
- EC50 ([1]; Homo sapiens, T-cell, 120 h): 367 nM
- EC50 [2]: 1290 nM

Structure (SMILES): N[C@H]1CS(=O)(=O)c2ccc(-c3nnc(-c4ccc(F)cc4)o3)cc2N(Cc2ccc(Cl)cc2)C1=O [Example 375, (3R)-3-amino-5-[(4-chlorophenyl)methyl]-7-[5-(4-fluorophenyl)-1,3,4-oxadiazol-2-yl]-1,1-dioxo-2,3-dihydro-1λ^6,5-benzothiazepin-4-one]
- Emax ([1]; Homo sapiens, T-cell, 120 h): 62%
- EC50 ([1]; Homo sapiens, T-cell, 120 h): 817 nM
- EC50 [2]: 461 nM

Structure (SMILES): CC(C)(C)c1nnc(-c2ccc3c(c2)N(Cc2ccc(N4CCOCC4)cc2)C(=O)[C@@H](N)CS3(=O)=O)o1 [Example 446, (3R)-3-amino-7-(5-tert-butyl-1,3,4-oxadiazol-2-yl)-5-[(4-morpholinophenyl)methyl]-1,1-dioxo-2,3-dihydro-1λ^6,5-benzothiazepin-4-one]
- Emax ([1]; Homo sapiens, T-cell, 120 h): 51%
- EC50 ([1]; Homo sapiens, T-cell, 120 h): 9900 nM
- EC50 [2]: 7570 nM

Structure (SMILES): CC(=O)N1CC(c2nnc(-c3cc4c(cc3F)S(=O)(=O)C[C@H](N)C(=O)N4Cc3ccc(Cl)cc3)o2)C2(CC2)C1 (stereo partly drawn) [Example 175, (3R)-7-[5-(5-acetyl-5-azaspiro[2.4]heptan-7-yl)-1,3,4-oxadiazol-2-yl]-3-amino-5-[(4-chlorophenyl)methyl]-8-fluoro-1,1-dioxo-2,3-dihydro-1λ^6,5-benzothiazepin-4-one]
- Emax ([1]; Homo sapiens, T-cell, 120 h): 62%
- EC50 ([1]; Homo sapiens, T-cell, 120 h): 7040 nM
- EC50 [2]: > 10000 nM

Structure (SMILES): COC(=O)N1CC(c2nnc(-c3cc4c(cc3F)S(=O)(=O)C[C@H](N)C(=O)N4Cc3ccc(Cl)cc3)o2)C1 [Example 172, methyl 3-[5-[(3R)-3-amino-5-[(4-chlorophenyl)methyl]-8-fluoro-1,1,4-trioxo-2,3-dihydro-1λ^6,5-benzothiazepin-7-yl]-1,3,4-oxadiazol-2-yl]azetidine-1-carboxylate]
- Emax ([1]; Homo sapiens, T-cell, 120 h): 190%
- EC50 ([1]; Homo sapiens, T-cell, 120 h): 2940 nM
- EC50 [2]: 1670 nM

Structure (SMILES): NC(Cn1nnc(-c2cc3c(cc2F)S(=O)(=O)C[C@H](N)C(=O)N3Cc2ccc(Cl)cc2)n1)C(F)(F)F (stereo partly drawn) [Example 14, (3R)-3-amino-7-[2-(2-amino-3,3,3-trifluoro-propyl)tetrazol-5-yl]-5-[(4-chlorophenyl)methyl]-8-fluoro-1,1-dioxo-2,3-dihydro-1λ^6,5-benzothiazepin-4-one]
- Emax ([1]; Homo sapiens, T-cell, 120 h): 131%
- EC50 ([1]; Homo sapiens, T-cell, 120 h): 810 nM
- EC50 [2]: 917 nM

Structure (SMILES): N[C@H]1CS(=O)(=O)c2cc(F)c(-c3nnc(NC45CC(Cl)(C4)C5)o3)cc2N(Cc2ccc(Cl)cc2)C1=O [Example 500, (3R)-3-amino-7-[5-[(3-chloro-1-bicyclo[1.1.1]pentanyl)amino]-1,3,4-oxadiazol-2-yl]-5-[(4-chlorophenyl)methyl]-8-fluoro-1,1-dioxo-2,3-dihydro-1λ^6.5-benzothiazepin-4-one]
- Emax ([1]; Homo sapiens, T-cell, 120 h): 97%
- EC50 ([1]; Homo sapiens, T-cell, 120 h): 1230 nM
- EC50 [2]: 911 nM

Structure (SMILES): COC(F)(c1nnc(-c2ccc3c(c2)N(Cc2ccc(OC(F)(F)F)cc2)C(=O)[C@@H](N)C[S+]3[O-])o1)C(F)(F)F (single isomer, unassigned; epimer b) [Example 426]
- Emax proliferation (% activation) [1]: 109 % activation
- EC50 [1]: 1400 nM
- EC50 [2]: 1290 nM
